“Also recorded” adds a separate entry of the source.

The source of these data is US8629283B2, “Compounds that modulate negative-sense, single-stranded RNA virus replication and uses thereof” (Icahn School of Medicine at Mount Sinai, priority 2008, dated 2014).

The experiment has as its system influenza virus. Type of experiment: cell-based.

In the case of `N#Cc1cc2c(OCC(O)CN3CCN(C(c4ccccc4)c4ccccc4)CC3)cccc2[nH]1` (centres unmarked) [SDZ-201106], the “susceptibility of passaged versus unpassaged virus (resistance)” value was “No difference; also recorded: emergence of resistant viruses was not observed”.

With `CC(=O)c1c(O)c(C)c(O)c(Cc2c(O)c3c(c(C(=O)/C=C/c4ccccc4)c2O)OC(C)(C)C=C3)c1O` [rottlerin], the “susceptibility of passaged versus unpassaged virus (resistance)” value is “No difference; also recorded: emergence of resistant viruses was not observed”.
